Measured values reported in patent US12077503B2, “Substituted cyclic amides and their use as herbicides” (FMC CORPORATION, priority 2015, dated 2024).

Columns and labels:
Assay type in all cases: in vivo
Kochia (Kochia scoparia) [1] = assay: Test A preemergence; conditions: Bassia scoparia, pre-emergence, 240 h, 0 to 100 scale where 0 is no effect and 100 is complete control, read-out: Kochia plant response rating; for pest or weed control at 31 g/ha: 31 g ai/ha, Preemergence; for pest or weed control at 125 g/ha: 125 g ai/ha, preemergence, visual injury rating, approximately 10 d
Outline: (§1)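 Treatment is preemergence as a directed soil spray after planting, or postemergence at the one- to two-leaf stage, with test chemical in a non-phytotoxic solvent mixture plus surfactant. Plants stay in the greenhouse about 10 d before visual injury scoring on a 0 to 100 scale versus untreated controls.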

[2] = system: barnyardgrass (Echinochloa crus-galli); assay: Test A preemergence; conditions: Echinochloa crus-galli, pre-emergence, 240 h, 0 to 100 scale where 0 is no effect and 100 is complete control, read-out: Barnyardgrass plant response rating; for pest or weed control at 31 g/ha: 31 g ai/ha, Preemergence; for pest or weed control at 125 g/ha: 125 g ai/ha, preemergence, visual injury rating, approximately 10 d
Outline: as §1

[3] = system: giant foxtail (Setaria faberii); assay: Test A preemergence; conditions: Setaria faberi, pre-emergence, 240 h, 0 to 100 scale where 0 is no effect and 100 is complete control, read-out: Foxtail, Giant plant response rating; for pest or weed control at 31 g/ha: 31 g ai/ha, Preemergence; for pest or weed control at 125 g/ha: 125 g ai/ha, preemergence, visual injury rating, approximately 10 d
Outline: as §1

[4] = system: pigweed (Amaranthus retroflexus); assay: Test A preemergence; conditions: Amaranthus retroflexus, pre-emergence, 240 h, 0 to 100 scale where 0 is no effect and 100 is complete control, read-out: Pigweed plant response rating; for pest or weed control at 31 g/ha: 31 g ai/ha, Preemergence; for pest or weed control at 125 g/ha: 125 g ai/ha, preemergence, visual injury rating, approximately 10 d
[5] = system: ragweed (common ragweed, Ambrosia elatior); assay: Test A preemergence; conditions: Ambrosia artemisiifolia, pre-emergence, 240 h, 0 to 100 scale where 0 is no effect and 100 is complete control, read-out: Ragweed plant response rating; for pest or weed control at 31 g/ha: 31 g ai/ha, Preemergence; for pest or weed control at 125 g/ha: 125 g ai/ha, preemergence, visual injury rating, approximately 10 d
Outline: as §1

[6] = system: ryegrass, Italian (Italian ryegrass, Lolium multiflorum); assay: Test A preemergence; conditions: Lolium multiflorum, pre-emergence, 240 h, 0 to 100 scale where 0 is no effect and 100 is complete control, read-out: Ryegrass, Italian plant response rating; for pest or weed control at 31 g/ha: 31 g ai/ha, Preemergence; for pest or weed control at 125 g/ha: 125 g ai/ha, preemergence, visual injury rating, approximately 10 d
Outline: as §1

[7] = system: Galium (catchweed bedstraw, Galium aparine); assay: Test A postemergence; conditions: Galium, post-emergence, 240 h, read-out: Galium plant response rating (0 to 100 scale); for pest or weed control at 125 g/ha: 125 g ai/ha, postemergence, visual injury vs untreated controls after approx. 10 d, 0 = no effect, 100 = complete control; for pest or weed control at 31 g/ha: Postemergence, 31 g ai/ha, 0 is no effect, 100 is complete control
Outline: as §1

Kochia (Kochia scoparia) [8] = assay: Test A postemergence; conditions: Bassia scoparia, post-emergence, 240 h, read-out: Kochia plant response rating (0 to 100 scale); for pest or weed control at 125 g/ha: 125 g ai/ha, postemergence, visual injury vs untreated controls after approx. 10 d, 0 = no effect, 100 = complete control; for pest or weed control at 31 g/ha: Postemergence, 31 g ai/ha, 0 is no effect, 100 is complete control
Outline: as §1

[9] = system: barnyardgrass (Echinochloa crus-galli); assay: Test A postemergence; conditions: Echinochloa crus-galli, post-emergence, 240 h, read-out: Barnyardgrass plant response rating (0 to 100 scale); for pest or weed control at 125 g/ha: 125 g ai/ha, postemergence, visual injury vs untreated controls after approx. 10 d, 0 = no effect, 100 = complete control; for pest or weed control at 31 g/ha: Postemergence, 31 g ai/ha, 0 is no effect, 100 is complete control
Outline: as §1

[10] = system: blackgrass (Alopecurus myosuroides); assay: Test A postemergence; conditions: Alopecurus myosuroides, post-emergence, 240 h, read-out: Blackgrass plant response rating (0 to 100 scale); for pest or weed control at 125 g/ha: 125 g ai/ha, postemergence, visual injury vs untreated controls after approx. 10 d, 0 = no effect, 100 = complete control; for pest or weed control at 31 g/ha: Postemergence, 31 g ai/ha, 0 is no effect, 100 is complete control
Outline: as §1

corn (Zea mays) = assay: Test A postemergence; conditions: Zea mays, post-emergence, 240 h, read-out: Corn plant response rating (0 to 100 scale); for plant injury at 125 g/ha: 125 g ai/ha, postemergence, visual injury vs untreated controls after approx. 10 d, 0 = no effect, 100 = complete control; for plant injury at 31 g/ha: Postemergence, 31 g ai/ha, 0 is no effect, 100 is complete control
Outline: as §1

[11] = system: giant foxtail (Setaria faberii); assay: Test A postemergence; conditions: Setaria faberi, post-emergence, 240 h, read-out: Foxtail, Giant plant response rating (0 to 100 scale); for pest or weed control at 125 g/ha: 125 g ai/ha, postemergence, visual injury vs untreated controls after approx. 10 d, 0 = no effect, 100 = complete control; for pest or weed control at 31 g/ha: Postemergence, 31 g ai/ha, 0 is no effect, 100 is complete control
Outline: as §1

[12] = system: pigweed (Amaranthus retroflexus); assay: Test A postemergence; conditions: Amaranthus retroflexus, post-emergence, 240 h, read-out: Pigweed plant response rating (0 to 100 scale); for pest or weed control at 125 g/ha: 125 g ai/ha, postemergence, visual injury vs untreated controls after approx. 10 d, 0 = no effect, 100 = complete control; for pest or weed control at 31 g/ha: Postemergence, 31 g ai/ha, 0 is no effect, 100 is complete control
Outline: as §1

[13] = system: ragweed (common ragweed, Ambrosia elatior); assay: Test A postemergence; conditions: Ambrosia artemisiifolia, post-emergence, 240 h, read-out: Ragweed plant response rating (0 to 100 scale); for pest or weed control at 125 g/ha: 125 g ai/ha, postemergence, visual injury vs untreated controls after approx. 10 d, 0 = no effect, 100 = complete control; for pest or weed control at 31 g/ha: Postemergence, 31 g ai/ha, 0 is no effect, 100 is complete control
Outline: as §1

[14] = system: ryegrass, Italian (Italian ryegrass, Lolium multiflorum); assay: Test A postemergence; conditions: Lolium multiflorum, post-emergence, 240 h, read-out: Ryegrass, Italian plant response rating (0 to 100 scale); for pest or weed control at 125 g/ha: 125 g ai/ha, postemergence, visual injury vs untreated controls after approx. 10 d, 0 = no effect, 100 = complete control; for pest or weed control at 31 g/ha: Postemergence, 31 g ai/ha, 0 is no effect, 100 is complete control
Outline: as §1

[15] = system: wheat (Triticum aestivum); assay: Test A postemergence; conditions: Triticum aestivum, post-emergence, 240 h, read-out: Wheat plant response rating (0 to 100 scale); for plant injury at 125 g/ha: 125 g ai/ha, postemergence, visual injury vs untreated controls after approx. 10 d, 0 = no effect, 100 = complete control; for plant injury at 31 g/ha: Postemergence, 31 g ai/ha, 0 is no effect, 100 is complete control
Outline: as §1

[16] = system: barnyardgrass (Echinochloa crus-galli); assay: Test B flooded paddy test; conditions: Echinochloa crus-galli, 250 g ai/ha, Flood; 0 to 100 scale where 0 is no effect and 100 is complete control; read-out: Barnyardgrass plant response rating
Outline: (§2)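 Compound goes directly into floodwater once pots are flooded 3 cm above soil, targeting plants at two leaves; the water depth is then held for the test duration. Plants sit 13–15 d in a greenhouse and are rated visually, 100 denoting complete control.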

[17] = system: ducksalad (Heteranthera limosa); assay: Test B flooded paddy test; conditions: Heteranthera limosa, 250 g ai/ha, Flood; 0 to 100 scale where 0 is no effect and 100 is complete control; read-out: Ducksalad plant response rating
Outline: as §2

rice (Oryra sativa) = assay: Test B flooded paddy test; conditions: Oryza sativa, 250 g ai/ha, Flood; 0 to 100 scale where 0 is no effect and 100 is complete control; read-out: Rice plant response rating
Outline: as §2

[18] = system: sedge, umbrella (small-flower umbrella sedge, Cyperus difformis); assay: Test B flooded paddy test; conditions: Cyperus difformis, 250 g ai/ha, Flood; 0 to 100 scale where 0 is no effect and 100 is complete control; read-out: Sedge, Umbrella plant response rating
Outline: as §2

CN1C[C@H](c2ccc(C#N)c(F)c2)[C@@H](C(=O)Nc2cccc(F)c2F)C1=O [Compound 1192]
pest or weed control at 31 g/ha (Kochia (Kochia scoparia) [1]): 0% | pest or weed control at 125 g/ha (Kochia (Kochia scoparia) [1]): 50% | pest or weed control at 31 g/ha [2]: 70% | pest or weed control at 125 g/ha [2]: 100% | pest or weed control at 31 g/ha [3]: 30% | pest or weed control at 125 g/ha [3]: 100% | pest or weed control at 31 g/ha [4]: 0% | pest or weed control at 125 g/ha [4]: 30% | pest or weed control at 31 g/ha [5]: 0% | pest or weed control at 125 g/ha [5]: 0% | pest or weed control at 31 g/ha [6]: 0% | pest or weed control at 125 g/ha [6]: 0% | pest or weed control at 125 g/ha [7]: 50% | pest or weed control at 31 g/ha [7]: 0% | pest or weed control at 125 g/ha (Kochia (Kochia scoparia) [8]): 40% | pest or weed control at 31 g/ha (Kochia (Kochia scoparia) [8]): 0% | pest or weed control at 125 g/ha [9]: 100% | pest or weed control at 31 g/ha [9]: 50% | pest or weed control at 125 g/ha [10]: 0% | pest or weed control at 31 g/ha [10]: 0% | plant injury at 125 g/ha (corn (Zea mays)): 40% | plant injury at 31 g/ha (corn (Zea mays)): 0% | pest or weed control at 125 g/ha [11]: 70% | pest or weed control at 31 g/ha [11]: 40% | pest or weed control at 125 g/ha [12]: 20% | pest or weed control at 31 g/ha [12]: 0% | pest or weed control at 125 g/ha [13]: 0% | pest or weed control at 31 g/ha [13]: 0% | pest or weed control at 125 g/ha [14]: 0% | pest or weed control at 31 g/ha [14]: 0% | plant injury at 125 g/ha [15]: 0% | plant injury at 31 g/ha [15]: 0% | pest or weed control at 250 g/ha [16]: 100% | pest or weed control at 250 g/ha [17]: 95% | pest or weed control at 250 g/ha (rice (Oryra sativa)): 30% | pest or weed control at 250 g/ha [18]: 30%

Cc1cc([C@H]2CN(C)C(=O)[C@@H]2C(=O)Nc2cccc(F)c2F)no1 [Compound 1237]
pest or weed control at 31 g/ha (Kochia (Kochia scoparia) [1]): 0% | pest or weed control at 125 g/ha (Kochia (Kochia scoparia) [1]): 0% | pest or weed control at 31 g/ha [2]: 0% | pest or weed control at 125 g/ha [2]: 70% | pest or weed control at 31 g/ha [3]: 20% | pest or weed control at 125 g/ha [3]: 60% | pest or weed control at 31 g/ha [4]: 0% | pest or weed control at 125 g/ha [4]: 0% | pest or weed control at 31 g/ha [5]: 0% | pest or weed control at 125 g/ha [5]: 0% | pest or weed control at 31 g/ha [6]: 0% | pest or weed control at 125 g/ha [6]: 0% | pest or weed control at 125 g/ha [7]: 0% | pest or weed control at 31 g/ha [7]: 0% | pest or weed control at 125 g/ha (Kochia (Kochia scoparia) [8]): 0% | pest or weed control at 31 g/ha (Kochia (Kochia scoparia) [8]): 0% | pest or weed control at 125 g/ha [9]: 20% | pest or weed control at 31 g/ha [9]: 0% | pest or weed control at 125 g/ha [10]: 0% | pest or weed control at 31 g/ha [10]: 0% | plant injury at 125 g/ha (corn (Zea mays)): 0% | plant injury at 31 g/ha (corn (Zea mays)): 0% | pest or weed control at 125 g/ha [11]: 20% | pest or weed control at 31 g/ha [11]: 0% | pest or weed control at 125 g/ha [12]: 0% | pest or weed control at 31 g/ha [12]: 0% | pest or weed control at 125 g/ha [13]: 0% | pest or weed control at 31 g/ha [13]: 0% | pest or weed control at 125 g/ha [14]: 0% | pest or weed control at 31 g/ha [14]: 0% | plant injury at 125 g/ha [15]: 0% | plant injury at 31 g/ha [15]: 0% | pest or weed control at 250 g/ha [16]: 0% | pest or weed control at 250 g/ha [17]: 65% | pest or weed control at 250 g/ha (rice (Oryra sativa)): 0% | pest or weed control at 250 g/ha [18]: 0%
